This passage reports IC50 results from patent US11780845B2 (Relay Therapeutics, Inc., priority 2019, dated 2023).

Assay [1] addresses FGFR2 (Homo sapiens (Human), UniProt P21802). Briefly: Biochemical FGFR2 Caliper assay.
Assay [2] relates to SNU-16. The assay can be described thus: Cell SNU-16 assay. The assay is classed as cell-based.
Setting [3] is: Homo sapiens, SNU-16, SNU-16 cells.

Some results are limits rather than exact numbers.

Chain of FGFR2 (P21802 22-821): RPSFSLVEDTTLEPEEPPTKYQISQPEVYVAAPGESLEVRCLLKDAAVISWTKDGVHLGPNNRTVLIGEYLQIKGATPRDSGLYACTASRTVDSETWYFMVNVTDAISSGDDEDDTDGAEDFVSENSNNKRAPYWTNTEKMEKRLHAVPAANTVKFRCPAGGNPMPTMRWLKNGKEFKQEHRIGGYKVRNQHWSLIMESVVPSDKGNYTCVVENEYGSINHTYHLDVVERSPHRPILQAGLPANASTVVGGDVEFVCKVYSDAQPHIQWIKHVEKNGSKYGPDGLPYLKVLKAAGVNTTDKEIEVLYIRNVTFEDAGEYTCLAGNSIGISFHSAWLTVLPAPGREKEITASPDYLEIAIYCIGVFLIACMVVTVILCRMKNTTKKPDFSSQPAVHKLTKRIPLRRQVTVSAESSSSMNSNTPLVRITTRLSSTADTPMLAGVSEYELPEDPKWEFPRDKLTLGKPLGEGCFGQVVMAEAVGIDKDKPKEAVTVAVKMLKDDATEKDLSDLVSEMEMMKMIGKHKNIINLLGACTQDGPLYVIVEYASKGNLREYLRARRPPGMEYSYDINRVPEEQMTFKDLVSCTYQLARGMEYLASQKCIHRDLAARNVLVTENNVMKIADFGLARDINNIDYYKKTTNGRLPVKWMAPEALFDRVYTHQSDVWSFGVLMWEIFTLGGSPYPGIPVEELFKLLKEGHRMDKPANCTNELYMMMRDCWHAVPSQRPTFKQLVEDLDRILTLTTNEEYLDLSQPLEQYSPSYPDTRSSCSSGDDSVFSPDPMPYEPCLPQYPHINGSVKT

`C#Cc1cc2c(cn1)-c1c(-c3ccc(Oc4nccc(C)n4)c(F)c3)c3c(N)ncnc3n1[C@@H](C)CO2` [Example 1442]: the IC50 in assay [1] is 1000 to 100000 nM; in assay [2] (setting [3]), 250 to 1000 nM.
The like results for `C#Cc1cc(C)c(-c2c(-c3ccc(Oc4nccc(C)n4)c(F)c3)c3c(N)ncnc3n2C)c(C)n1` [Example 1215] were, in that order, < 100 nM and ≤ 100 nM.
Turning to `C=C(C)C(=O)Nc1ccc(-c2c(-c3ccc(Oc4nccc(C)n4)cc3)c3c(N)ncnc3n2C)c(Cl)c1F` [Example 1089], the IC50 in assay [1] and in assay [2] (setting [3]) was 1000 to 100000 nM each time.
With `C=C(C)C(=O)Nc1ccc(-c2c(-c3ccc(-c4ccn(C)n4)nc3)c3c(N)ncnc3n2C)cc1` [Example 1124], the half-maximal inhibitory concentration (IC50) in assay [1] lay within 1000 to 100000 nM; in assay [2] (setting [3]), 250 to 1000 nM.
`Cc1ccnc(Oc2ccc(-c3c(-c4ccc(C)nc4C)n(C)c4ncnc(N)c34)cc2F)n1` [Example 1206]: the IC50 in assay [1] and in assay [2] (setting [3]) was 250 to 1000 nM each time.
Turning to `C=CC(=O)N1CCC(c2c(-c3ccc(OC4CC4)nc3)c3c(N)ncnc3n2C)C1` (stereo not shown) [Example 804], the values for the IC50 in assay [1] and in assay [2] (setting [3]) were 100 to 250 nM and 1000 to 100000 nM, respectively.
`C=C(C)C(=O)Nc1ccc(-c2cn3ncnc(N)c3c2-c2ccc(Oc3ncc(F)cn3)c(F)c2)cc1` [Example 827]: the IC50 in assay [1] and in assay [2] (setting [3]) was 1000 to 100000 nM each time.
Consider `C=C(C)C(=O)Nc1ccc(-c2c(-c3cnn(-c4ccccc4)c3C)c3c(N)ncnc3n2C)cc1` [Example 1276], for which the IC50 in assay [1] and in assay [2] (setting [3]) was 1000 to 100000 nM in each case.
With `C=CC(=O)Nc1ccc(-c2c(-c3ccc(O)cc3)c3c(N)ncnc3n2C)cc1` [Example 1120], the IC50 in assay [1] is < 100 nM; in assay [2] (setting [3]), ≤ 100 nM.
On to `C=C(C)C(=O)Nc1ccc(-c2c(-c3ccc(Oc4cccc(C)n4)cc3)c3c(N)ncnn3c2CO)cc1` [Example 808], for which the IC50 in assay [1] and in assay [2] (setting [3]) was 100 to 250 nM in each case.
For the compound `C=C(C)C(=O)Nc1ccc(-c2c(C3=CC[C@H](C(=O)N4CCCCCC4)CC3)c3c(N)ncnc3n2C)cc1` (single isomer, unassigned) [Example 977], the IC50 in assay [1] was < 100 nM; in assay [2] (setting [3]) it was ≤ 100 nM.
With `C#Cc1nc2cc(-c3c(-c4ccc(Oc5nccc(C)n5)c(F)c4)c4c(N)ncnc4n3C)ccc2n1C` [Example 1359], the IC50 in assay [1] was < 100 nM; in assay [2] (setting [3]), ≤ 100 nM.
Consider `C=C(C)C(=O)Nc1ccc(-c2c(-c3ccc4c(c3)NC(=O)C4(C)C)c3c(N)ncnc3n2C)cc1` [Example 1283], for which the IC50 in assay [1] and in assay [2] (setting [3]) was 1000 to 100000 nM throughout.
`C#Cc1cc(C)c(-c2c(C3=CC[C@@H](C(=O)N4CCCC45COC5)CC3)c3c(N)ncnc3n2C)cn1` (single isomer, unassigned) [Example 1239]: the values for the IC50 in assay [1] and in assay [2] (setting [3]) were < 100 nM and ≤ 100 nM, respectively.
With `C#Cc1cc(C)c(-c2cn3ncnc(N)c3c2C2=CC[C@H](C(=O)N3CCC[C@H]3C)CC2)cn1` [Example 1387], the IC50 in assay [1] and in assay [2] (setting [3]) was 1000 to 100000 nM in each case.
As to `Cc1ccnc(Oc2ccc(-c3c(-c4ccc(N5C(=O)C=CC5=O)cc4)n(C)c4ncnc(N)c34)cc2)n1` [Example 1084], the results for the IC50 in assay [1] and in assay [2] (setting [3]) were < 100 nM and ≤ 100 nM, respectively.
In the case of `C=C(C)C(=O)Nc1ccc(-c2[nH]c3cncnc3c2-c2ccc(Oc3cccc(C)n3)cc2)cc1` [Example 831], the IC50 in assay [1] was < 100 nM; in assay [2] (setting [3]) it was 100 to 250 nM.
Turning to `C#Cc1cc(OC)c(-c2c(-c3ccc(Oc4nccc(C)n4)c(F)c3)c3c(C)ncnc3n2C)c(C)n1` (atropisomer, axis not shown) [Example 1460], the IC50 in assay [1] fell in the range of 1000 to 100000 nM; in assay [2] (SNU-16 cells), 250 to 1000 nM.
Take `C=C(C)C(=O)Nc1ccc(-c2c(-c3ccc4c(c3)OCC4c3cccc(C)n3)c3c(N)ncnc3n2C)cc1` (stereo not shown) [Example 907]: the values for the IC50 in assay [1] and in assay [2] (setting [3]) were < 100 nM and ≤ 100 nM, respectively.
The like results for `C=CC(=O)N[C@@H]1C[C@@H]1c1c(-c2ccc(C(=O)N3CCCC3)cc2)c2c(N)ncnc2n1C` (single isomer, unassigned) [Example 973] were, in that order, 250 to 1000 nM and 1000 to 100000 nM.
